Reference: US12180187B2, “1-phenyl-5-azinylpyrazolyl-3-oxyalkyl acids and their use for controlling unwanted plant growth” (BAYER AKTIENGESELLSCHAFT, priority 2019, dated 2024)

Key:
[1] = system: ALOMY; experiment: Pre-emergence action at 320 g/ha against ALOMY; type: in vivo, Alopecurus myosuroides; settings: scored visually after about 3 weeks vs untreated controls (100% = plants have died)
Excerpt: (§1) b) Seeds of monocotyledonous and dicotyledonous weed plants and crop plants are placed in plastic or organic planting pots and covered with soil. The compounds of the invention, formulated in the form of wettable powders (WP) or as emulsion concentrates (EC), are then applied onto the surface of the covering soil as aqueous suspension or emulsion with addition of 0.5% additive at a water application rate of 600 l/ha (converted). After the treatment, the pots are placed in a greenhouse and kept under good growth conditions for the trial plants. After about 3 weeks, the effect of the preparations is scored visually in comparison with untreated controls as percentages. For example, 100% activity=the plants have died, 0% activity=like control plants. Tables 13 to 26 below show the effects of selected compounds of the general formula (I) on various harmful plants and at an application rate corresponding to 320 g/ha, which were obtained by the experimental procedure mentioned above.

[2] = system: DIGSA; experiment: Pre-emergence action at 320 g/ha against DIGSA; type: in vivo, Digitaria sanguinalis; settings: visual scoring after about 3 weeks vs untreated controls
Excerpt: as §1

[3] = system: SETVI; experiment: Pre-emergence action at 320 g/ha against SETVI; type: in vivo, Setaria viridis; settings: visual scoring after about 3 weeks vs untreated controls
Excerpt: as §1

[4] = system: AMARE; experiment: Pre-emergence action at 320 g/ha against AMARE; type: in vivo, Amaranthus retroflexus; settings: visual scoring after about 3 weeks vs untreated controls
Excerpt: as §1

[5] = system: VIOTR; experiment: Pre-emergence action at 320 g/ha against VIOTR; type: in vivo, Viola tricolor; settings: dosage 320 g/ha
Excerpt: as §1

[6] = system: MATIN; experiment: Pre-emergence action at 320 g/ha against MATIN; type: in vivo, Tripleurospermum inodorum (Matricaria inodora); settings: visual scoring after about 3 weeks vs untreated controls
Excerpt: as §1

[7] = system: POLCO; experiment: Pre-emergence action at 320 g/ha against POLCO; type: in vivo, Fallopia convolvulus (Polygonum convolvulus); settings: visual scoring after about 3 weeks vs untreated controls
Excerpt: as §1

[8] = system: VERPE; experiment: Pre-emergence action at 320 g/ha against VERPE; type: in vivo, Veronica persica; settings: visual scoring after about 3 weeks vs untreated controls
Excerpt: as §1

[9] = system: ALOMY; experiment: Pre-emergence action against ALOMY, 1280 g/ha; type: in vivo, Alopecurus myosuroides; settings: visual scoring after about 3 weeks vs untreated controls, 100% = plants have died, 0% = like control plants
Excerpt: (§2) 1. Pre-Emergence Herbicidal Effect and Crop Plant Compatibility a) Seeds of mono- and dicotyledonous weed plants are placed in plastic pots in sandy loam soil (doubly sown with one species each of mono- or dicotyledonous weed plants per pot) and covered with soil. The compounds of the invention, formulated in the form of wettable powders (WP) or as emulsion concentrates (EC), are then applied onto the surface of the covering soil as aqueous suspension or emulsion with addition of 0.5% additive at a water application rate equivalent to 600 litres per hectare. After the treatment, the pots are placed in a greenhouse and kept under good growth conditions for the trial plants. After about 3 weeks, the effect of the preparations is scored visually in comparison with untreated controls as percentages. For example, 100% activity=the plants have died, 0% activity=like control plants. 1. Pre-Emergence Effectiveness Tables 1 to 12 below show the effects of selected compounds of the general formula (I) according to Tables 1 and 2 on various harmful plants and at an application rate corresponding to 1280 g/ha, which were obtained by the experimental procedure mentioned above.

[10] = system: DIGSA; experiment: Pre-emergence action against DIGSA, 1280 g/ha; type: in vivo, Digitaria sanguinalis; settings: visual scoring after about 3 weeks vs untreated controls, 100% = plants have died, 0% = like control plants
Excerpt: as §2

[11] = system: ECHCG; experiment: Pre-emergence action against ECHCG, 1280 g/ha; type: in vivo, Echinochloa crus-galli; settings: visual scoring after about 3 weeks vs untreated controls, 100% = plants have died, 0% = like control plants
Excerpt: as §2

[12] = system: LOLRI; experiment: Pre-emergence action against LOLRI, 1280 g/ha; type: in vivo, Lolium rigidum; settings: visual scoring after about 3 weeks vs untreated controls, 100% = plants have died, 0% = like control plants
Excerpt: as §2

[13] = system: POAAN; experiment: Pre-emergence action against POAAN, 1280 g/ha; type: in vivo, Poa annua; settings: visual scoring after about 3 weeks vs untreated controls, 100% = plants have died, 0% = like control plants
Excerpt: as §2

[14] = system: SETVI; experiment: Pre-emergence action against SETVI, 1280 g/ha; type: in vivo, Setaria viridis; settings: visual scoring after about 3 weeks vs untreated controls, 100% = plants have died, 0% = like control plants
Excerpt: as §2

[15] = system: AMARE; experiment: Pre-emergence action against AMARE, 1280 g/ha; type: in vivo, Amaranthus retroflexus; settings: scored visually after about 3 weeks vs untreated controls (100% = plants have died)
Excerpt: as §2

[16] = system: MATIN; experiment: Pre-emergence action against MATIN, 1280 g/ha; type: in vivo, Tripleurospermum inodorum (Matricaria inodora); settings: scored visually after about 3 weeks vs untreated controls (100% = plants have died)
Excerpt: as §2

[17] = system: STEME; experiment: Pre-emergence action against STEME, 1280 g/ha; type: in vivo, Stellaria media; settings: scored visually after about 3 weeks vs untreated controls (100% = plants have died)
Excerpt: as §2

[18] = system: VERPE; experiment: Pre-emergence action against VERPE, 1280 g/ha; type: in vivo, Veronica persica; settings: scored visually after about 3 weeks vs untreated controls (100% = plants have died)
Excerpt: as §2

[19] = system: DIGSA; experiment: Post-emergence action against DIGSA, 1.28 kg/ha; type: in vivo, Digitaria sanguinalis; settings: dosage 1280 g/ha, visual rating about 3 weeks after treatment vs untreated controls
Description: (§3) • a) Seeds of mono- and dicotyledonous weed plants are placed in plastic pots in sandy loam soil (twin sowing with one species each of mono- or dicotyledonous weed plants per pot), covered with soil and cultivated in a greenhouse under controlled growth conditions. 2 to 3 weeks after sowing, the test plants are treated at the one-leaf stage. The compounds of the invention, formulated in the form of wettable powders (WP) or as emulsion concentrates (EC), are applied to the green parts of the plants as aqueous suspension or emulsion with addition of 0.5% additive at a water application rate equivalent to 600 litres per hectare. After the test plants have been kept in the greenhouse under optimum growth conditions for about 3 weeks, the activity of the preparations is rated visually in comparison to untreated controls. For example, 100% activity=the plants have died, 0% activity=like control plants. As shown by the results, compounds of the general formula (I) of the invention, in post-emergence treatment, have very good herbicidal efficacy (90% to 100% herbicidal action) against harmful plants such as Abutilon theophrasti, Digitaria sanguinalis, Echinochloa crus-galli, Matricaria inodora, Poa annua, at an application rate of 1.28 kg of active substance per hectare.

[20] = system: ECHCG; experiment: Post-emergence action against ECHCG, 1.28 kg/ha; type: in vivo, Echinochloa crus-galli; settings: dosage 1280 g/ha, visual rating about 3 weeks after treatment vs untreated controls
Description: as §3

[21] = system: POAAN; experiment: Post-emergence action against POAAN, 1.28 kg/ha; type: in vivo, Poa annua; settings: dosage 1280 g/ha, visual rating about 3 weeks after treatment vs untreated controls
Description: as §3

[22] = system: SETVI; experiment: Post-emergence action against SETVI, 1.28 kg/ha; type: in vivo, Setaria viridis; settings: dosage 1280 g/ha, visual rating about 3 weeks after treatment vs untreated controls
Description: as §3

[23] = system: ABUTH; experiment: Post-emergence action against ABUTH, 1.28 kg/ha; type: in vivo, Abutilon theophrasti; settings: dosage 1280 g/ha, visual rating about 3 weeks after treatment vs untreated controls (100% = plants died)
Description: as §3

[24] = system: AMARE; experiment: Post-emergence action against AMARE, 1.28 kg/ha; type: in vivo, Amaranthus retroflexus; settings: dosage 1280 g/ha, visual rating about 3 weeks after treatment vs untreated controls (100% = plants died)
Description: as §3

[25] = system: MATIN; experiment: Post-emergence action against MATIN, 1.28 kg/ha; type: in vivo, Tripleurospermum inodorum (Matricaria inodora); settings: dosage 1280 g/ha, visual rating about 3 weeks after treatment vs untreated controls (100% = plants died)
Description: as §3

[26] = system: STEME; experiment: Post-emergence action against STEME, 1.28 kg/ha; type: in vivo, Stellaria media; settings: dosage 1280 g/ha, visual rating about 3 weeks after treatment vs untreated controls (100% = plants died)
Description: as §3

[27] = system: LOLRI; experiment: Pre-emergence action at 320 g/ha against LOLRI; type: in vivo, Lolium rigidum; settings: visual scoring after about 3 weeks vs untreated controls
Excerpt: as §1

| SMILES | Pre-emergence action at 320 g/ha against ALOMY in % [1] [%] | Pre-emergence action against SETVI in % [3] [%] | Pre-emergence action against AMARE in % [4] [%] | Pre-emergence action against VIOTR in % [5] [%] | Pre-emergence action against MATIN in % [6] [%] | Pre-emergence action against POLCO in % [7] [%] | Pre-emergence action against VERPE in % [8] [%] | also measured |
| --- | --- | --- | --- | --- | --- | --- | --- | --- |
| COC(=O)CN(C)C(=O)COc1nn(-c2ccccc2F)c(-c2ccc(F)nc2)c1Br [Example X-030] | 90 | 80 | 90 | 90 | – | – | – | Pre-emergence action against DIGSA in % [2]: 100% |
| O=C(O)CNC(=O)C(F)Oc1nn(-c2ccccc2F)c(-c2ccc(F)nc2)c1Br (stereo not shown) [Example X-012] | 90 | 90 | 100 | 100 | 90 | 90 | – | – |
| COC(=O)C1CCCN(C(=O)COc2nn(-c3ccccc3F)c(-c3cncc(F)c3)c2Br)C1 (stereo not shown) [Example X-034] | – | – | – | 90 | – | – | 90 | – |
| COC(=O)C1CCN(C(=O)COc2nn(-c3ccccc3F)c(-c3cncc(F)c3)c2Br)C1 (stereo not shown) [Example X-037] | – | – | 100 | – | – | 90 | 100 | – |
| C#Cc1c(OCC(=O)OCC)nn(-c2ccccc2F)c1-c1ccc(F)nc1 [VII-088] | – | – | – | – | – | – | – | Pre-emergence action against ALOMY [9]: 100%; Pre-emergence action against DIGSA [10]: 100%; Pre-emergence action against ECHCG [11]: 100%; Pre-emergence action against LOLRI [12]: 100%; Pre-emergence action against POAAN [13]: 100%; Pre-emergence action against SETVI [14]: 100%; Pre-emergence action against AMARE [15]: 100%; Pre-emergence action against MATIN [16]: 100%; Pre-emergence action against STEME [17]: 100%; Pre-emergence action against VERPE [18]: 100%; Post-emergence action against DIGSA [19]: 100%; Post-emergence action against ECHCG [20]: 100%; Post-emergence action against POAAN [21]: 100%; Post-emergence action against SETVI [22]: 90%; Post-emergence action against ABUTH [23]: 90%; Post-emergence action against AMARE [24]: 100%; Post-emergence action against MATIN [25]: 100%; Post-emergence action against STEME [26]: 90% |
| COC(=O)CNC(=O)C(F)Oc1nn(-c2ccccc2F)c(-c2ccc(F)nc2)c1Br (stereo not shown) [Example X-014] | 90 | 90 | 100 | 100 | 90 | – | – | Pre-emergence action against LOLRI in % [27]: 90% |
